Common to all, as to assay type: physicochemical
A short description of data set [1]: Colour stability test, stress conditions: storage at 40° C. The conditions noted are these: stored at 40° C. As for the experimental part:
The CIE b value was determined using a X-Rite® 918 apparatus (X-Rite Incorporated, 4300 44th St. SE, Grand Rapids, Mich. 49512 USA). A sample of 2 g of cefadroxil crystals was placed at the appropriate place of the apparatus and the CIE b value was read. The average of two separate readings was calculated. Cefadroxil (CDX) monohydrate crystals obtained by the one-step crystallisation process of the Reference Experiment A and the two-step crystallisation process according to the present invention were stored at a temperature of 40° C. The CIE b values of the different cefadroxil monohydrate crystals were determined at different time intervals as indicated in Table 1. CDX (1)-(3) were obtained from 3 different crystallisation processes.

The nature of data set [2]: Determination of the CIE b value (colour of crystals) after crystallisation. The conditions noted are these: crystals after isolation and drying, t=0; monohydrate. The protocol: CIE is an abbreviation for the French title of the International Commission on Illumination: “Commission International de l'Eclairage”. The CIE b is a measure to determine the colour of crystals, which is a known technology for the skilled man in the art. An overview of the fundamentals of the CIE colorimetry system is given in Ohno, Y., Paper for IS&T NIO16 Conference, Vancouver, Canada, Oct. 16-20, 2000, p. 1-5. The CIE b value was determined using a X-Rite® 918 apparatus (X-Rite Incorporated, 4300 44th St. SE, Grand Rapids, Mich. 49512 USA). A sample of 2 g of cefadroxil crystals was placed at the appropriate place of the apparatus and the CIE b value was read. The average of two separate readings was calculated.

The nature of data set [3]: Colour stability test, storage at 25° C. The conditions noted are these: stored at 25° C. As for the experimental part:
The CIE b value was determined using a X-Rite® 918 apparatus (X-Rite Incorporated, 4300 44th St. SE, Grand Rapids, Mich. 49512 USA). A sample of 2 g of cefadroxil crystals was placed at the appropriate place of the apparatus and the CIE b value was read. The average of two separate readings was calculated. The cefadroxil monohydrate crystals obtained with the one-step crystallisation process of Reference experiment A and a two-step crystallisation process according to the present invention were stored at 25° C.

As for `CC1=C(C(=O)O)N2C(=O)[C@@H](NC(=O)[C@H](N)c3ccc(O)cc3)[C@H]2SC1` [CDX (2), cefadroxil monohydrate], the CIE b is 4.4 in data set [1] (0 weeks, monohydrate); 4.8 in data set [1] (2 weeks, monohydrate); 5.1 in data set [1] (4 weeks, monohydrate).
In the case of `CC1=C(C(=O)O)N2C(=O)[C@@H](NC(=O)[C@H](N)c3ccc(O)cc3)[C@H]2SC1` [Example 2, cefadroxil monohydrate], the CIE b value in data set [2] is recorded as 4.52.
Regarding `CC1=C(C(=O)O)N2C(=O)[C@@H](NC(=O)[C@H](N)c3ccc(O)cc3)[C@H]2SC1` [two-step crystallization process, cefadroxil monohydrate], the CIE b in data set [3] (0 months, monohydrate) is given as 4.8; in data set [3] (3 months, monohydrate), 5.8; in data set [3] (6 months, monohydrate) it was 6.0; in data set [3] (9 months, monohydrate), 6.3.
In the case of `CC1=C(C(=O)O)N2C(=O)[C@@H](NC(=O)[C@H](N)c3ccc(O)cc3)[C@H]2SC1` [CDX (1), cefadroxil monohydrate], the CIE b in data set [1] (0 weeks, monohydrate) is given as 4.8; in data set [1] (4 weeks, monohydrate), 6.6; in data set [1] (8 weeks, monohydrate), 9.1; in data set [1] (12 weeks, monohydrate), 10.4; in data set [1] (20 weeks, monohydrate) it was 12.4; in data set [1] (24 weeks, monohydrate), 12.9.
In data set [2], `CC1=C(C(=O)O)N2C(=O)[C@@H](NC(=O)[C@H](N)c3ccc(O)cc3)[C@H]2SC1` [Example 1, cefadroxil monohydrate] showed a CIE b value of 4.68.
Take `CC1=C(C(=O)O)N2C(=O)[C@@H](NC(=O)[C@H](N)c3ccc(O)cc3)[C@H]2SC1` [Reference Experiment A, cefadroxil monohydrate]: the CIE b worked out at 6.2 in data set [3] (0 months, listed as one-step crystallization process, monohydrate); 14.0 in data set [3] (3 months, listed as one-step crystallization process, monohydrate); 14.7 in data set [3] (6 months, listed as one-step crystallization process, monohydrate); 15.1 in data set [3] (9 months, listed as one-step crystallization process, monohydrate); 15.5 in data set [3] (12 months); 17.7 in data set [3] (18 months). For the same molecule, the CIE b was 6.2 in data set [1] (0 weeks, listed as CDX monohydrate crystals obtained by the one-step crystallisation process, monohydrate); 10.0 in data set [1] (2 weeks, listed as CDX monohydrate crystals obtained by the one-step crystallisation process, monohydrate); 13.2 in data set [1] (4 weeks, listed as CDX monohydrate crystals obtained by the one-step crystallisation process, monohydrate); 15.6 in data set [1] (6 weeks); 17.0 in data set [1] (8 weeks, listed as CDX monohydrate crystals obtained by the one-step crystallisation process, monohydrate); 14.2 in data set [1] (12 weeks). Also, the CIE b in data set [1] (14 weeks) turned out to be 18.2; in data set [1] (18 weeks), 18.6; in data set [1] (20 weeks, listed as CDX monohydrate crystals obtained by the one-step crystallisation process, monohydrate) it was 19.1; in data set [1] (24 weeks, listed as CDX monohydrate crystals obtained by the one-step crystallisation process, monohydrate), 20.0. The same molecule gave a CIE b value in data set [2] of 6.2.
`CC1=C(C(=O)O)N2C(=O)[C@@H](NC(=O)[C@H](N)c3ccc(O)cc3)[C@H]2SC1` [CDX (3), cefadroxil monohydrate]: the CIE b in data set [1] (0 weeks, monohydrate) came to 3.1; in data set [1] (2 weeks, monohydrate) it was 3.0; in data set [1] (4 weeks, monohydrate) it was 4.6.

(Values after US20130217659A1, “PROCESS FOR THE CRYSTALLISATION OF CEFADROXIL MONOHYDRATE” (DSM SINOCHEM PHARMACEUTICALS NETHERLANDS B.V., priority 2006, published 2013).)
